Measurements as given in patent US20050202070A1, “Iodine/iodide-containing hot melt coatable adhesive, methods and uses therefor” (priority 2002, published 2005).
Like-named read-outs stand apart in the source and are kept apart here.

Legend:
[1] = Solubility of PVPI, I2/NaI and I2 in plasticizer compounds
[2] = cited from earlier work

Solubility of 2% I2/2.4% NaI in the plasticizer [1] | Solubility of 18% I2 in the plasticizer [1] | Structure (SMILES) | Vapor pressure ([2]; at 25C) | Vapor pressure ([2]; at 90C) | Vapor pressure ([2]; at 184.4C (boils))
Soluble | Soluble | CCCCNS(=O)(=O)c1ccccc1 [Plasthall BSA, N-n-butylbenzenesulfonamide] | – | – | –
Soluble | Soluble | CCCCC(CC)C(=O)OCCOCCOCCOCCOC(=O)C(CC)CCCC (stereo not shown) [TerMerR 804, tetraethyleneglycol di-2ethylhexanoate] | – | – | –
– | – | II [iodine] | 0.30 mmHG | 26.7 mmHg | 760 mmHg
